Target: T1, AFV3-109 (Betalipothrixvirus acidiani, UniProt A7WKA5)
T1 construct: homodimer in solution and crystal
Assay: tryptophan fluorescence quenching titration
Type: binding
Details: read-out: KDapp

OCC(O)CO [glycerol]
Kd: 1.7 µM

From PMC1796864, “Crystal structure of AFV3-109, a highly conserved protein from crenarchaeal viruses” (Virology Journal, 2007)
